For series [1], the target named is T1, HIV-1 PR (Human immunodeficiency virus type 1 group M subtype B, UniProt P04585). The series is classed as cell-based. Further details: expressed in transfected cells; rtTA/mCherry, 5xUAS-eGFP reporter, inducible PR/Gal4. As to conditions: HEK293T cells pre-treated with 10 uM inhibitor, co-transfected with reporter and pcDNA-PR/Gal4.
Protocol: It was of critical importance to verify the ability for the PR/Gal4 fusion to activate the reporter eGFP by the addition of PR inhibitors. For that purpose, 293T cells were pre-treated with 10 μM Indinavir and then co-transfected with reporter and pcDNA-PR/Gal4 vectors.
293T cells were transfected as follows. 15 μl of 2 mg/mL Polyethylenimine linear 25 kD (Polysciences, Inc.) were added to 125 μl of DMEM in a 1.8 ml Eppendorf tube. 3 g of each DNA was added drop-wise to each tube. Tubes were mixed and incubated for 20 min at RT. This mixture was then added drop-wise to 293T cells in a 10 cm plate at approximately 60-75% confluence. Cells were then analyzed by fluorescence microscopy and/or flow cytometry 24 hrs post transfection.
Top Panel: Fluorescence microscopy of eGFP expression in HEK293T cells 24 hours post transfection with the reporter vector (pFR), or co-transfection with the reporter vector plus either the Gal4, PR/Gal4, or PRm/Gal4 vectors. Bottom panel: HEK293T cells were analyzed by flow cytometry at 24 hours post transfection with the same conditions top panel. Gates were drawn to determine the ability to identify cells with an active PI. […] Quantification of eGFP expression in HEK293T transfected with various assay elements. The numbers of cells under various conditions were quantified for eGFP levels indicative of PR inhibition. Results shown are an average of 3 experiments.
Series [2] concerns the target T1, HIV-1 PR. The series is classed as cell-based. Details: expressed in transfected cells; host or cells: SupT1 T-cell clone (lentiviral transduction; rtTA/mCherry, 5xUAS-eGFP reporter, inducible PR/Gal4). Particulars: for concentration resulting in eGFP activation: analyzed 50 hrs, range tested 1 nM to 20 μM. On the procedure:
Finally, cells were infected with virus encoding the reporter, rtTA and inducible wild-type PR/Gal4 (pH-TRE-PR/Gal4) to test the ability for this system in T-cells to indicate the levels of PR activity.
To determine the optimal time point for the analysis of eGFP expression in the presence of inhibitor, cells were activated with Dox and analyzed by flow cytometry 4, 8, 12, 16, 20, 25, 50, or 75 hours later. Six-well plates containing 250K cells per well in 3 mL media were treated either with DMSO alone as control, or 1 μg/mL Dox and 10 μM Indinavir.
(§1) The range chosen extended from 1 nM to 20 μM.
Flow Cytometry was performed on a BD FACSAria™ with 488 nm and 633 nm lasers. Data was collected on FACSDiva 6.1.1™ software and then exported to FlowJo™. eGFP expression was detected in the FITC channel and mCherry expression was detected on the PE-Texas-Red channel. Cells were first gated for size and granularity (FSC-A vs SSC-A) followed by doublet gating (FSC-A vs FSC-W and SSC-A vs. SSC-W). Sorted populations were gated on PE-TexasRed vs FITC plot. 250K cells were collected for each sample into 0.5 mL fetal calf serum (FCS) and 1 mL RPMI. Cells were then spun down at 1500 RPM and resuspended in fresh media in 6-well plates. Cells were allowed to grow for at least seven days to allow for expansion and loss of previously activated eGFP expression.
FIG. 21A (upper left) schematically illustrates exemplary constructs utilized to generate infectious particles for the transduction of SupT1 cells with the various assay elements. FIG. 21B (right) illustrates data from a cell sorting assay comprising: a previously generated stable SupT1 cell line expressing rtTA and mCherry was infected with the reporter virus (generated from pH-5×UAS-eGFP), or co-infected with the reporter virus plus a virus encoding an inducible assay element (generated from pH-TRE-Gal4, pH-TRE-PR/Gal4, or pH-TRE-PRm/Gal4). Cells were then activated with either 1 μg/mL of Dox alone, or were pre-incubated for 5 minutes with 10 μM Indinavir following activation with 1 μg/mL Dox. […] Finally, single SupT1 cells from the purified population were sorted into 96 well plates and grown as a monoclonal population and then tested for optimal responses to assay induction of eGFP under appropriate conditions. FIG. 21C (lower left) illustrates images of fluorescence microscopy of SupT1 clones expressing the assay elements. Cells expressing various elements of the assay were treated as indicated with DMSO, DMSO+1 μg/mL Dox, or […] Dox+10 μM Indinavir and analyzed 24 hours later by fluorescence microscopy for mCherry and eGFP expression. D. Quantification of eGFP expression of clonal SupT1 cells treated with DMSO, DMSO+1 μg/mL Dox, or 1 μg/mL Dox+10 μM Indinavir.
(§2) FIG. 22 graphically illustrates data determining the optimal conditions for activating the assay to screen for PR inhibition. FIG. 22A graphically illustrates a Doxycycline titration. Clonal SupT1 cells harboring an inducible Gal4, PR/Gal4 or PRm/Gal4 were pre-incubated in a 96 well plate with either DMSO or 10 μM Indinavir and then either left untreated, or activated with […] of Dox. Cells were analyzed by flow cytometry and gated to determine the number of cells positive for eGFP expression. FIG. 22B graphically illustrates a time course of eGFP Induction in response to Doxycyline activation in the presence of DMSO or a PI.

Series [3] addresses T1, HIV-1 PR. The series is classed as cell-based. Further details: expressed in transfected cells; host or cells: SupT1 T-cell clone (lentiviral transduction; rtTA/mCherry, 5xUAS-eGFP reporter, inducible PR/Gal4). As to conditions: clonal SupT1, 96-well plates, pre-incubation with 1 μM PI, activation at 1 μg/mL Dox.
The test system of the next series is SupT1 cells. Kind of series: Cell death in the reporter T-cell clones during PI concentration response. As to conditions: for concentration resulting in significant cell death, with decline in number of eGFP positive cells: human, 50 h. The protocol: as §1
Cells were then analyzed 50 hrs later for eGFP expression as determined by flow cytometry on a BD FACSAria.

Series [4] deals with tet-responsive element (TRE). Kind of series: Doxycycline activation titration of clonal SupT1 cells (Tet-On, eGFP readout). The series is classed as cell-based. On the procedure:
In order to optimize the assay for maximal Gal4, PR/Gal4 or PRm/Gal4 induction, we analyzed the effect of increasing levels of Dox. Cells with 0, 50, 100, 250, 500, 750, 1,000, and 2,000 ng/mL Dox were either treated with 10 uM DMSO or 10 uM Indinavir and analyzed 32 hours later. TRE-Gal4 cells reached saturation with Doxycycline at about 1,000 ng/mL whether Indinavir was present or not. […] Again, as with transiently transfected 293 cells, TRE-PR/Gal4 cells had little to non-detectable eGFP expression at any given Dox concentration in the absence of 10 μM Indinavir.
as §2, with “PI. SupT1 clones harboring Gal4, PR/Gal4, or PRm/Gal4 were pre-incubated in a 96 well plate with either DMSO or 10 μM Indinavir and then activated with 1 μg/mL Dox. Cells were analyzed at either 4, 8, 12, 16, 20, 25, 50 or 75 hours by flow cytometry and gated for eGFP positive expression.” for “PI.”

The mark [5] stands for this setting: SupT1 PR/Gal4 clone, 1 μg/mL Dox, 50 hrs.
Where [6] appears, read: SupT1 PR/Gal4 clone, 1 μg/mL Dox.

Molecules are shown by their SMILES.

`CC(C)(C)NC(=O)[C@@H]1CN(Cc2cccnc2)CCN1C[C@@H](O)C[C@@H](Cc1ccccc1)C(=O)N[C@H]1c2ccccc2C[C@H]1O` [Indinavir]: the “eGFP expression (reporter activation by PR/Gal4)” value at HIV-1 PR [1] is reported as “drastic induction”. For the same molecule, on HIV-1 PR [2] (setting [5]), the “concentration inducing nearly full activation of reporter” value came out at 5 µM and the “levels of reporter activation at low concentrations (ranking among tested PIs)” value is “lowest levels”. In addition, the “activation of PR/Gal4 clones (FIG. 31)” value at HIV-1 PR [2] (SupT1 PR/Gal4 clones, Dox 1 μg/mL, PI 1 μM, <1% background) is around 90%. Besides, the “time of initial induction of eGFP expression” value on HIV-1 PR [2] (clonal SupT1, 1 μg/mL Dox and 10 μM inhibitor) turned out to be 8 h. The “eGFP expression (% of cells) at 50 hours” value at HIV-1 PR [2] (clonal SupT1, 1 μg/mL Dox and 10 μM inhibitor, by 50 hours) is on record as around 100%. Moreover, at HIV-1 PR [2] (non-clonal SupT1 cells with reporter, rtTA and pH-TRE-PR/Gal4, 1 μg/mL Dox and 10 μM inhibitor), the eGFP expression entry is listed as “large induction”. At HIV-1 PR [3], the “time at which activation of clones reaches max (FIG. 34)” value was “around 48 hrs”.
For `CC(C)(C)NC(=O)[C@@H]1C[C@@H]2CCCC[C@@H]2CN1C[C@@H](O)[C@H](Cc1ccccc1)NC(=O)[C@H](CC(N)=O)NC(=O)c1ccc2ccccc2n1` [Saquinavir], the “concentration with significant cell death / decline in number of eGFP positive cells” value with SupT1 cells (SupT1 PR/Gal4 clone, 50 hrs, maximal level tested) came out at 20 µM.
`CC(C)CN(C[C@@H](O)[C@H](Cc1ccccc1)NC(=O)O[C@H]1CO[C@H]2OCC[C@H]21)S(=O)(=O)c1ccc(N)cc1` [Darunavir]: on HIV-1 PR [2] (setting [5]), the “effect on PR inhibition (ranking among tested PIs)” value is “strongest effect”. Further, the “concentration resulting in eGFP activation” value at HIV-1 PR [2] (setting [6]) was determined as 1 nM.
Take `Cc1c(O)cccc1C(=O)N[C@@H](CSc1ccccc1)[C@H](O)CN1C[C@H]2CCCC[C@H]2C[C@H]1C(=O)NC(C)(C)C` [Nelfinavir]: in the series with SupT1 cells, the “concentration resulting in significant cell death, with decline in number of eGFP positive cells” value is on record as “around 1 uM”.
Turning to `COC(=O)N[C@H](C(=O)N[C@@H](Cc1ccccc1)[C@@H](O)CN(Cc1ccc(-c2ccccn2)cc1)NC(=O)[C@@H](NC(=O)OC)C(C)(C)C)C(C)(C)C` [Atazanavir], on HIV-1 PR [2] (setting [5]), the “effect on PR inhibition (ranking among tested PIs)” value is “strongest effect”. For the same molecule, on HIV-1 PR [2] (setting [6]), the “concentration resulting in eGFP activation” value came to 1 nM.
As for `C[C@H]1c2cccc(O)c2C(=O)C2=C(O)[C@]3(O)C(=O)C(C(N)=O)=C(O)[C@@H](N(C)C)[C@@H]3[C@@H](O)[C@@H]21` [Doxycycline], in series [4] (clonal SupT1 TRE-Gal4, with or without 10 uM Indinavir, 32 hours), the “concentration at saturation of eGFP induction, TRE-Gal4 cells” value was “about 1,000 ng/mL”. Also, the “concentration at maximal eGFP induction, TRE-PR/Gal4 cells” value in series [4] (clonal SupT1 TRE-PR/Gal4, pre-incubation with 10 μM Indinavir, 32 hours) is reported as “around 500 ng/mL”. Besides, in series [4] (clonal SupT1 TRE-PRm/Gal4, uninhibited and Indinavir-treated, 32 hours), the “concentration at saturation of eGFP induction, TRE-PRm/Gal4 cells” value is “around 250 ng/mL”. In addition, the “concentration at which activation is saturated (FIG. 33)” value in series [4] (clonal SupT1 cells pre-incubated with DMSO or 1 μM Indinavir) is on record as “around 1 μg/mL”.
With `Cc1cccc(C)c1OCC(=O)N[C@@H](Cc1ccccc1)[C@@H](O)C[C@H](Cc1ccccc1)NC(=O)[C@H](C(C)C)N1CCCNC1=O` [Lopinavir], the “concentration resulting in significant cell death, with decline in number of eGFP positive cells” value in the series with SupT1 cells is on record as “around 1 uM”.
